From ChEMBL document CHEMBL1128455, “Ribose-modified adenosine analogues as potential partial agonists for the adenosine receptor” (J Med Chem, 1995) come the findings set out here.

In one assay the target is Adenosine receptor A2a (Rattus norvegicus, UniProt P30543). As to the kind of experiment: Binding affinity against Adenosine A2A receptor by using [3H]CGS-21680 as radioligand.
The species named for a further assay is Rattus norvegicus. As to the kind of experiment: GTP shift was determined in rat. Format: functional.
Assay [1] deals with T1, Adenosine receptor A1 (Rattus norvegicus, UniProt P25099).
T1 sequence (P25099 whole entry): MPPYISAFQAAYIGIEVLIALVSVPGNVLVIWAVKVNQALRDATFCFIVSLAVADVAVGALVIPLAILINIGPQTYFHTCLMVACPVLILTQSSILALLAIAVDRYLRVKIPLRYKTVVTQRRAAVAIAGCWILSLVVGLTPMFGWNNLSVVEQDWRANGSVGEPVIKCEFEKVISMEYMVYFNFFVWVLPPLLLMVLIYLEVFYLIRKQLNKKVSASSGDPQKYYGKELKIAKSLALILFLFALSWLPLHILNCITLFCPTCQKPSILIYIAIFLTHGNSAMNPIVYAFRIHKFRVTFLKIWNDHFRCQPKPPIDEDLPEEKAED
Description: Affinity for the Adenosine A1 receptor in the absence of GTP (A1-GTP) by using [3H]DPCPX as radioligand

In assay [2] the target is T1, Adenosine receptor A1. The source holds these as a separate data set.
Description: Affinity for the Adenosine A1 receptor in the presence of GTP (A1+GTP) by using [3H]-DPCPX as radioligand

Sequence of Adenosine receptor A2a (P30543 whole entry): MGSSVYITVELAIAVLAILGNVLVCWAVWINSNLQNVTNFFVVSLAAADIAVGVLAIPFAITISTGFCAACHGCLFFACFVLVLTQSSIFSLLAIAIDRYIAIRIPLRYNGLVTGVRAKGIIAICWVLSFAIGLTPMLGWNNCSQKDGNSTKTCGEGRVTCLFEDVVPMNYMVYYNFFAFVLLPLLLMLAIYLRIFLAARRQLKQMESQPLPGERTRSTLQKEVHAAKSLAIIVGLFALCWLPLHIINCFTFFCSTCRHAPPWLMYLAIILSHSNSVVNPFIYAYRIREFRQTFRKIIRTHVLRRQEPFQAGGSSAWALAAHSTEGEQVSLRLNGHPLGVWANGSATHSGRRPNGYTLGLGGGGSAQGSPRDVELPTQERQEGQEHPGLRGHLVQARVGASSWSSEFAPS

For the molecule `C[C@H](Cc1ccccc1)Nc1ncnc2c1ncn2C1CC(O)C(CO)O1` (stereo partly specified), the “% radioligand bound” value at Adenosine receptor A2a is recorded as 86%. The GTP shift in the assay filed under Rattus norvegicus is recorded as 1.7. Also, the Ki (in general, a dissociation constant, usually derived from enzyme kinetics or from competition with a known ligand) is 8.45 µM on Adenosine receptor A1 [1] and 14.4 µM at Adenosine receptor A1 [2].
For `OC[C@H]1O[C@@H](n2cnc3c(NC4CCCCC4)ncnc32)C[C@@H]1O`, in that order: 90%, 2.6, 8.94 µM and 22.8 µM.
With `C[C@H]1OC(n2cnc3c(NC4CCCC4)ncnc32)[C@H](O)[C@@H]1O` (stereo partly specified), the Ki came out at 10.1 µM at Adenosine receptor A2a, 0.07 µM on Adenosine receptor A1 [1] and 0.45 µM on Adenosine receptor A1 [2]. Also, the GTP shift in the assay filed under Rattus norvegicus is 6.4.
On to `C[C@H]1O[C@@H](n2cnc3c(N)ncnc32)[C@H](O)[C@@H]1O` [5'-Deoxyadenosine], for which the GTP shift in the assay listed under Rattus norvegicus amounted to 6.6. Also, the Ki stood at 1.82 µM at Adenosine receptor A1 [1] and 12.1 µM at Adenosine receptor A1 [2].
In the case of `C[C@@H](Cc1ccccc1)Nc1ncnc2c1ncn2C1CC(O)C(CO)O1` (stereo partly specified), the “% radioligand bound” value at Adenosine receptor A2a is reported as 91%.
For the molecule `C[C@H](Cc1ccccc1)Nc1ncnc2c1ncn2C1O[C@H](C)[C@@H](O)[C@H]1O` (stereo partly specified), the Ki is 3.67 µM at Adenosine receptor A2a, 0.3 µM at Adenosine receptor A1 [1] and 1.07 µM on Adenosine receptor A1 [2]. The GTP shift in the assay listed under Rattus norvegicus came to 3.6.
Take `Nc1ncnc2c1ncn2[C@@H]1O[C@H](CO)C[C@H]1O` [CORDYCEPIN]: the GTP shift in the assay listed under Rattus norvegicus came out at 2.1.
Take `C[C@@H](Cc1ccccc1)Nc1ncnc2c1ncn2[C@@H]1O[C@H](CO)C[C@H]1O`: the inhibition constant Ki at Adenosine receptor A2a is 57.2 µM; on Adenosine receptor A1 [1], 8.26 µM; on Adenosine receptor A1 [2], 17.5 µM. The GTP shift in the assay filed under Rattus norvegicus is listed as 2.1.
On to `OC[C@H]1O[C@@H](n2cnc3c(NC4CCCC4)ncnc32)[C@H](O)[C@@H]1O` [N6-CYCLOPENTYLADENOSINE], for which affinity at Adenosine receptor A2a was put at a Ki of 0.58 µM.
Turning to `OC[C@H]1O[C@@H](n2cnc3c(NC4CCCC4)ncnc32)C[C@@H]1O`, at Adenosine receptor A2a, the “% radioligand bound” value is listed as 88%. Moreover, in the assay listed under Rattus norvegicus, the GTP shift came out at 4.1. Also, the values for the Ki at Adenosine receptor A1 [1] and on Adenosine receptor A1 [2] were 1.87 µM and 7.6 µM, respectively.
With `OC[C@@H]1C[C@@H](O)[C@H](n2cnc3c(NC4CCCC4)ncnc32)O1`, the inhibition constant Ki at Adenosine receptor A2a is 18.6 µM; on Adenosine receptor A1 [1], 0.11 µM; on Adenosine receptor A1 [2], 0.47 µM. In addition, the GTP shift in the assay listed under Rattus norvegicus was determined as 4.3.
For `OC[C@@H]1C[C@@H](O)[C@H](n2cnc3c(NC4CCCCC4)ncnc32)O1`, in that order: 22.1 µM, 0.31 µM, 1.26 µM and 4.1.
For `Cn1cnc2c(N)ncnc21`, in that order: 8.6 µM, 12.5 µM, 14.7 µM and 1.2.
For `C[C@H](Cc1ccccc1)Nc1ncnc2c1ncn2[C@@H]1O[C@H](CO)C[C@H]1O`, in that order: 7.36 µM, 0.35 µM, 1.01 µM and 2.9.
